Test results reported in ChEMBL document CHEMBL4316651, “Halogenated Tyrosine Derivatives from the Tropical Eastern Pacific Zoantharians Antipathozoanthus hickmani and Parazoanthus darwini” (J Nat Prod, 2019).
The source made the active and inactive calls. The rule behind the calls is not given here.

Key:
[1] = tested on: Staphylococcus aureus; test: Antimicrobial activity against methicillin-sensitive Staphylococcus aureus ATCC 29213 at 128 ug/ml by CLSI protocol based method; type: functional, organism-based
[2] = tested on: Staphylococcus aureus; test: Antimicrobial activity against methicillin-resistant Staphylococcus aureus MB5393 at 128 ug/ml by CLSI protocol based method; type: functional, organism-based
[3] = tested on: Escherichia coli; test: Antimicrobial activity against Escherichia coli ATCC 25922 at 128 ug/ml by CLSI protocol based method; type: functional, organism-based
[4] = tested on: Klebsiella pneumoniae; test: Antimicrobial activity against Klebsiella pneumoniae ATCC 700603 at 128 ug/ml by CLSI protocol based method; type: functional, organism-based
[5] = tested on: Acinetobacter baumannii; test: Antimicrobial activity against Acinetobacter baumannii MB5973 at 128 ug/ml by CLSI protocol based method; type: functional, organism-based
[6] = tested on: Pseudomonas aeruginosa; test: Antimicrobial activity against Pseudomonas aeruginosa PAO1 at 128 ug/ml by CLSI protocol based method; type: functional, organism-based
[7] = tested on: Candida albicans; test: Antimicrobial activity against Candida albicans ATCC 64124 at 128 ug/ml by CLSI protocol based method; type: functional, organism-based
[8] = tested on: HepG2; test: Cytotoxicity in human HepG2 cells incubated for 24 hrs by MTT assay; type: functional, cell-based
[9] = tested on: A549; test: Cytotoxicity in human A549 cells incubated for 24 hrs by MTT assay; type: functional, cell-based
[10] = tested on: MIA PaCa-2; test: Cytotoxicity in human MIAPaCa2 cells incubated for 24 hrs by MTT assay; type: functional, cell-based

Row | Compound | Activity [1] | Activity [2] | Activity [3] | Activity [4] | Activity [5] | Activity [6] | Activity [7] | IC50 ([8]; hepg2) | IC50 [9] | IC50 [10] | IC50 ([8]; Homo sapiens, HepG2, 24 h, read-out: IC50) [µM]
1 | C[N+]1(C)CCC[C@@H]1C(=O)N[C@@H](Cc1cc(Br)c(O)c(I)c1)C(=O)O | inactive | inactive | inactive | inactive | inactive | inactive | inactive |  |  |  | 
2 | C[N+](C)(C)CCc1cc(Br)c(O)c(I)c1.O=C([O-])C(F)(F)F | inactive | inactive | inactive | inactive | inactive | inactive | inactive | Not Active | Not Active | Not Active | 
3 | C[N+](C)(C)CCc1cc(I)c(O)c(I)c1.O=C([O-])C(F)(F)F | inactive | inactive | inactive | inactive | inactive | inactive | inactive | Not Active | Not Active | Not Active | 
4 | C[N+]1(C)CCC[C@@H]1C(=O)N[C@@H](Cc1cc(Br)c(O)c(Br)c1)C(=O)O.O=C([O-])C(F)(F)F | inactive | inactive | inactive | inactive | inactive | inactive | inactive | Not Active | Not Active | Not Active | 
5 | CCC(C)C(=O)Nc1nc2c([nH]1)[C@@H](C)c1[nH]c(NC(=O)C=C(C)C)nc1CC2 (some centres not stated) | inactive | inactive | inactive | inactive | inactive | inactive | inactive | Not Active | Not Active | Not Active | 
6 | CC(C)=CC(=O)Nc1nc2c([nH]1)[C@H](C)c1[nH]c(NC(=O)C(C)C)nc1CC2 | inactive | inactive | inactive | inactive | inactive | inactive | inactive | Not Active | Not Active | Not Active | 
7 | C[N+](C)(C)CC(=O)N[C@@H](Cc1cc(Br)c(O)c(Br)c1)C(=O)O.O=C([O-])C(F)(F)F | inactive | inactive | inactive | inactive | inactive | inactive | inactive | Not Active | Not Active | Not Active | 
8 | C[N+](C)(C)CC(=O)N[C@@H](Cc1cc(Br)c(O)c(I)c1)C(=O)O.O=C([O-])C(F)(F)F | inactive | inactive | inactive | inactive | inactive | inactive | inactive |  | Not Active | Not Active | 7.8
